Assays:
[1] = test system: MG6 cells; experiment: Proinflammatory cytokine secretion inhibition, LPS-stimulated microglial cells (ELISA); assay type: cell-based, mouse; conditions: for proinflammatory cytokine secretion-inhibiting activity on the MG6 cells: same test as Example 2
Description: MG6 cells (mouse-derived microglial cell line) were cultured in a DMEM medium (+4% FBS) containing MHP1 or MHP2 (final concentration: 50 or 100 μg/ml), and LPS (final concentration: 2 ng/ml) for 24 hours by a standard method. After culture, the concentrations of IL-6 and TNFα in the medium were measured by the ELISA method. In the Examples of the present application, the ELISA method was performed using a kit (Quantikine ELISA Mouse TNF-α or Quantikine ELISA Mouse IL-6, produced by R&D Systems). The results are shown in FIG. 1 (IL-6) and FIG. 2 (TNFα).
The proinflammatory cytokine secretion-inhibiting effect was examined in the same as in Example 2, except that the final concentration of MHP1 was set to 100 μg/ml, and that RANKL full-length protein was used at a final concentration of 10 ng/ml or 100 ng/ml as the comparison target.

[2] = test system: LPS-administered mice (Balb/c); experiment: Septicemia model, LPS intraperitoneal, survival; assay type: in vivo, mouse; conditions: LPS 10 mg/kg + MHP2 5 mg/kg or 10 mg/kg i.p.; LPS only: 2 of 3 died; FIG. 17
Description: To wild-type mice (Balb/c, 5-week-old female mice), LPS (10 mg/kg) was intraperitoneally administered, or LPS (10 mg/kg) and MHP-2 (5 mg/kg or 10 mg/kg) were intraperitoneally administered. After administration, the survival rate of the mice was measured.

[3] = test system: THP1 cells; experiment: Proinflammatory cytokine secretion inhibition, human macrophage cells; assay type: cell-based; conditions: MHP6 10-100 μg/ml or MHP1 100 μg/ml, LPS 2 ng/ml, 24 hours, FIG. 14
Description: THP1 cells (human-derived macrophage cell line) were cultured in a DMEM medium (+4% FBS) containing MHP6 (human-derived; final concentration: 10, 30, 50, or 100 μg/ml) or MHP1 (mouse-derived; final concentration: 100 μg/ml), and LPS (final concentration: 2 ng/ml) for 24 hours by a standard method. After culture, the concentration of IL-6 in the medium was measured by the ELISA method.

[4] = test system: osteoclast precursor cells; experiment: Osteoclast differentiation, Osteoclast Culture Kit (TRAP and nuclear staining); assay type: cell-based; conditions: with M-CSF 50 ng/ml; MHP1 30, 50 or 100 μg/ml or RANKL protein 50 ng/ml; FIG. 13
Description: Osteoclast Culture Kit V-2 (OSC33, produced by Cosmo Bio Co., Ltd.) was used. According to the manual of the kit, culture of osteoclast precursor cells was started in the presence of M-CSF (final concentration: 50 ng/ml) in the A and B groups, and in the presence of M-CSF (final concentration: 50 ng/ml) and MHP1 (final concentration: 30, 50, or 100 μg/ml) in the C and D groups. Thereafter, 24 hours to 7 days after the start of culture, the A group was cultured in the presence of M-CSF (final concentration: 50 ng/ml), the B group was cultured in the presence of M-CSF (final concentration: 50 ng/ml) and RANKL protein (final concentration: 50 ng/ml), the C group was cultured in the presence of M-CSF (final concentration: 50 ng/ml) and MHP1 (final concentration: 30, 50, or 100 μg/ml), and the D group was cultured in the presence of M-CSF (final concentration: 50 ng/ml), RANKL protein (final concentration: 50 ng/ml), and MHP1 (final concentration: 30, 50, or 100 μg/ml). After culture, the cells were subjected to TRAP staining and nuclear staining according to a standard method.

| Substance | proinflammatory cytokine secretion-inhibiting activity on the MG6 cells [1] | also measured |
| --- | --- | --- |
| LMVYVVKTSIKIPSSHNLMKGG (listed as Mus musculus) [MHP5] | showed proinflammatory cytokine secretion-inhibiting activity | – |
| LMVYVVKTSIKIPSS (listed as Mus musculus) [MHP4] | showed proinflammatory cytokine secretion-inhibiting activity | – |
| LMVYVVKTSIK (listed as Mus musculus) [MHP17] | showed proinflammatory cytokine secretion-inhibiting activity | – |
| DYLQLMVYVVKTSIKIPSSHNLMKGGSTKN (listed as Mus musculus) [MHP2] | – | increase in the amount of IL-6 secretion by LPS ([1]; MG6 cells, peptide 50 or 100 μg/ml, LPS 2 ng/ml, 24 hours, FIG. 1): suppressed; increase in the amount of TNFα secretion by LPS ([1]; MG6 cells, peptide 50 or 100 μg/ml, LPS 2 ng/ml, 24 hours, FIG. 2): suppressed; mice that died [2]: no mouse |
| LMVYVVKTSIKIPSSHNLMKGGS (listed as Mus musculus) [MHP12] | showed proinflammatory cytokine secretion-inhibiting activity | – |
| HETSGSVPADYLQLMVYVVKTSIKIPSS (listed as Mus musculus) [MHP3] | did not show proinflammatory cytokine secretion-inhibiting activity | – |
| LMVYVVKTSIKIPSSHNLMKGGSTKN (listed as Mus musculus) [MHP13] | showed proinflammatory cytokine secretion-inhibiting activity | – |
| LMVYVTKTSIKIPSSHTLMKGGSTKYWSGN (listed as Homo sapiens) [MHP6] | – | proinflammatory cytokine (IL-6) secretion-inhibiting activity on human-derived macrophage cells [3]: exhibited proinflammatory cytokine secretion-inhibiting activity |
| RANKL: RANKL protein (Recombinant Murin sRANKL Ligand (Cat No. 315-11): produced by Peprotech) (LMVYVVKTSIKIPSSHNLMKGGSTKNWSGN) [reference compound] | – | differentiation of osteoclasts by the substance itself [4]: promoted |

Source: patent US10517926B2, “Oligopeptide having proinflammatory cytokine secretion-inhibiting activity” (Osaka University, priority 2015, dated 2019)
